# Source: patent US12263277B2, “Uniaxially-aligned nanofiber scaffolds and methods for producing and using same” (Oridivus LLC, priority 2019, dated 2025)
# “Also recorded” adds a separate entry of the source.
# Key:
# [1] = test system: oronasal fistula (ONF) in the hard palate; experiment: Murine oronasal fistula (ONF) model, wound healing after scaffold implantation; format: in vivo, mice
# Text: To understand the wound healing characteristics of the oral mucosa, the present disclosure provides an ONF model utilizing thermal injury for creating the ONF. In at least one embodiment, the ONF model permits study of the cellular and inflammatory infiltration to the wound site during the healing process. An exemplary analysis of FTY720 effects on ONF healing in the model includes, but is not limited to: 1) forming an ONF in each of a plurality of samples (e.g., mice); 2) dividing the mice into 3 groups, a no implant group, a group where blank nanofiber scaffolds are implanted, and a group where uniaxially-aligned nanofiber scaffolds with FTY720 are implanted; and 3) evaluating ONF healing results at predetermined time points (e.g., day 3, day 5, day 7, etc.).
# To produce a Murine ONF model, 12 week old C57/b6 mice are obtained (for example from Jackson Laboratories) and anesthetized using intraperitoneal ketamine. According to one embodiment, the oral cavity is accessed using a retractor while the mice are spontaneously breathing. […] The time points include 0, 3, 5, and 7 days and healing of the ONF is assessed using histomorphometry while functional outcomes are measured evaluating for poor oral intake measured by body weight loss, dehydration (serum sodium using an ELIZA assay), and eventual death (Kaplan Meir curve).
# After staining the slides, Hamamatsu NanoZoomer 2.0 HT processor was used to scan slides and they were then analyzed in Hamamatsu NDP.view2 Viewing Software. […]
# To determine if a targeted auto-therapy induction of pro-regenerative monocytes and macrophages would lead to improved ONF healing, the delivery of FTY-720, a sphingosine analog that increases pro-regenerative monocytes and macrophages was tested via a nanofiber scaffold. […] With reference to FIGS. 13A-D, to examine the effects of the FTY-720 on the host inflammatory response, quantitative polymerase chain reaction (PCR) on the mucosal tissue surrounding the injury was performed and determined that IL-1 was decreased in the presence of FTY-720 whereas IL-6 and IL-10 were increased.
# [2] = In vitro release of FTY720 from controlled-release polymers; format: physicochemical; conditions: acid-capped L-A and methyl-ester capped H-ME polymers, incubation in vitro
# Text: In one or more embodiments, the S1PR agonist FTY720 is differentially released from polymers for controlled release (“acid-capped” L-A and “methyl-ester capped” H-ME polymers). […] According to one embodiment, an immunoregenerative approach is executed to control how M1 to M2 are spatially and temporally regulated by recruitment of anti-inflammatory monocytes (AM). In at least one embodiment, the immunoregenerative approach includes determining how localized administration of FTY720 is compartmentalized in vivo. In one or more embodiments, the phosphorylated form of the drug FTY720-P is primarily responsible for receptor mediated signaling and has much lower threshold effective concentrations than FTY720 at all of the S1PRs. In at least one embodiment, similar to S1P, FTY720-P must be dephosphorylated by LPP3 to enter the cell. According to one embodiment, once inside the cell, FTY720 can be phosphorylated by sphingosine kinase 2 (SPHK2) and subsequently exported from the cell by Spns2. In various embodiments, the ability of FTY720 to be reversibly phosphorylated allows it to undergo multiple cycles of signaling in the tissue, contributing to a sustained gradient. According to one embodiment, the regulatory roles of local gradients of FTY720 and FTY720-P are differentiable.
# [3] = test system: palatine and surrounding hard palate bones; experiment: μCT evaluation of hard palate bones after ONF creation; format: in vivo, mice; conditions: following ONF creation
# Protocol: According to one embodiment, similar to humans, the critical wound healing time point is immediately following hard palate injury (or surgery) and fistula healing is unlikely after this critical time period. To assess the critical wound healing time, in at least one embodiment, ONFs are created in Murine models and standard histomorphologic evaluation of the mice following injury at day 0, 3, 5, 7, and 14 days is performed. According to one embodiment, the specimens are assessed using H+E staining of coronal sections in […] (10 male and 10 female) each to evaluate: the width of the ONF, the presence or absence of inflammatory infiltrate at the wound edges, the formation of a basement membrane in the healing areas (using type IV collagen and laminin staining). In at least one embodiment, the exposure of the maxillary and palatine bones as well as the surrounding maxillary structures are evaluated using micro-computed tomography (μCT) imaging.
# According to one embodiment, ONF area width is measured at each of the time points and compared to controls. […] In various embodiments, to measure the proliferative and apoptosis response following oral injury, proliferation and apoptosis are assessed. […]
# IL-10 = experiment: Quantitative PCR of hard palate mucosa around the injury, IL-10; format: in vivo, mice; conditions: vs blank scaffold
# Text: (§1) FTY720 is a sphingosine-1-phosphate receptor analogue that is linked to LY6C^lo (anti-inflammatory) monocytes and M2 (Pro-regenerative) macrophages attraction. According to one embodiment, for analysis of lymphocyte populations, cells are stained for flow cytometry with one or more of the following antibodies: Zombie NIR™ Fixable Viability Kit (Biolegend), PE anti-mouse MERTK (Mer) Antibody (Biolegend), Brilliant Violet 711™ anti-mouse CD64 (FcγRI) Antibody (Biolegend), Brilliant Violet 510™ anti-mouse Ly-6C Antibody (Biolegend), FITC anti-mouse CD206 (MMR) Antibody (Biolegend), Brilliant Violet 421™ anti-mouse/human CD11b Antibody (Biolegend). […]
# (§2) According to one embodiment, during oral cavity wound healing following injury, there is predominantly a pro-inflammatory lymphocytic infiltrate. […] According to one embodiment, the IL assessment is performed in samples with and without scaffold placement, and includes using quantitative PCR of hard palate mucosa at day 3, 5, and 7 and comparing results to controls. In at least one embodiment, serum is collected and evaluated for levels of IL1, IL6, IL10 and VEGF using ELIZA to determine if there are systemic alterations in inflammatory and vasculogenic gene regulation and compared to uninjured controls. […]
# IL-6 = experiment: Quantitative PCR of hard palate mucosa around the injury, IL-6; format: in vivo, mice; conditions: vs blank scaffold
# Text: as §1, §2
# LY6C^lo monocytes = experiment: Flow cytometry of hard palate mucosa in ONF model, monocytes; format: in vivo, mice
# Text: (§3) FTY720 is a sphingosine-1-phosphate receptor analogue that is linked to LY6C^lo (anti-inflammatory) monocytes and M2 (Pro-regenerative) macrophages attraction. According to one embodiment, for analysis of lymphocyte populations, cells are stained for flow cytometry with one or more of the following antibodies: Zombie NIR™ Fixable Viability Kit (Biolegend), PE anti-mouse MERTK (Mer) Antibody (Biolegend), Brilliant Violet 711™ anti-mouse CD64 (FcγRI) Antibody (Biolegend), Brilliant Violet 510™ anti-mouse Ly-6C Antibody (Biolegend), FITC anti-mouse CD206 (MMR) Antibody (Biolegend), Brilliant Violet 421™ anti-mouse/human CD11b Antibody (Biolegend). In various embodiments, to detect and sort for anti-inflammatory LY6C^lo monocytes and M2 Macrophages, real-time polymerase chain reaction (PCR) analysis is performed with iQ SYBR green supermix (Bio-Rad, 1708882) in a Bio-Rad iCycler for 40 cycles to assess the expression of inflammatory IL-1, IL-4 and IL-6 and anti-inflammatory IL-10 and transcription factor Sox2, which is related to keratinocyte migration and proliferation. In one or more embodiments, slides are stained for H&E and Phospho-histone 3 to assess keratinocytes undergoing mitosis.
# In various embodiments, flow cytometry of inflammatory cells is performed to characterize monocyte and macrophage phenotypes. In one or more embodiments, for analysis of lymphocyte populations, hard palate mucosa is harvested and digested in 1 mg/ml collagenase I (Sigma) for 45 minutes at 37 degrees Celsius. In at least one embodiment, the digested mucosa is filtered through a cell strainer to obtain a single cell suspension. According to one embodiment, the single-cell suspensions are stained for live cells using either Zombie Green or Zombie NIR (Biolegend) dyes in cell-culture grade PBS per manufacturer instructions. In various embodiments, cells are stained with cell phenotyping antibodies in a 1:1 volume ratio of 3% FBS and Brilliant Stain Buffer (BD Biosciences) according to standard procedures and analyzed on a FACS AriaIIIu flow cytometer (BD Biosciences). […] According to one embodiment, 30 μL of Accucheck Counting Beads (Invitrogen) are added per sample for absolute quantification of cell populations.
# (§4) For analysis of lymphocyte populations, oral mucosal tissues were harvested and digested in 1 mg/ml collagenase I (Sigma) for 45 minutes at 37 degrees Celsius. […] Cells were then stained with cell phenotyping antibodies in a 1:1 volume ratio of 3% FBS and Brilliant Stain Buffer (BD Biosciences) according to standard procedures and analyzed on a FACS AriaIIIu flow cytometer (BD Biosciences). […]
# M2 macrophages = experiment: Flow cytometry of hard palate mucosa in ONF model, macrophages; format: in vivo, mice
# Text: as §3, with “In one or more embodiments, slides are stained for H&E and Phospho-histone 3 to assess keratinocytes undergoing mitosis.” left out
# In various embodiments, flow cytometry of inflammatory cells is performed to characterize monocyte and macrophage phenotypes. […] In various embodiments, cells are stained with cell phenotyping antibodies in a 1:1 volume ratio of 3% FBS and Brilliant Stain Buffer (BD Biosciences) according to standard procedures and analyzed on a FACS AriaIIIu flow cytometer (BD Biosciences). […] According to one embodiment, 30 μL of Accucheck Counting Beads (Invitrogen) are added per sample for absolute quantification of cell populations.
# as §4
# cutaneous wound = experiment: Cutaneous wound healing / dorsal skinfold window chamber model; format: in vivo
# Text: In one example, FTY720 and FTY720-P are released from 1 mm diameter thin films in a cutaneous dorsal skinfold window chamber for 3 days to investigate the in vivo gradient produced by H-ME PLGA film release of S1P receptor targeting compounds.
# Multiple approaches can be used to improve the recruitment of the pro-regenerative monocytes and macrophages to cutaneous wounds.
# IL-1 = experiment: Quantitative PCR of hard palate mucosa around the injury, IL-1; format: in vivo, mice; conditions: vs blank scaffold
# Text: as §1, §2
# S1PRs = conditions: all of the S1PRs; cited from earlier work
# [4] = cutaneous wound, local delivery
Structure (SMILES),"ONF wound healing ([1]; day 5, vs blank scaffold)","ONF wound healing ([1]; day 7, vs blank scaffold)","ONF / oral cavity wound healing ([1]; no time point stated, vs blank scaffold)",in vitro release profile [2],μCT changes to the underlying bone [3],IL-10 expression (IL-10),IL-6 expression (IL-6),"LY6C^lo % of total CD11B+ cells (LY6C^lo monocytes; day 3, flow cytometry, implanted scaffold, blank 12.7±5.7) [%]","LY6Clo monocytes in wound bed (LY6C^lo monocytes; day 3, vs blank scaffolds)","LY6C^lo % of total cells (LY6C^lo monocytes; day 3 post-ONF formation, flow cytometry, implanted scaffold, blank 3.7%±0.9)","Ly6Clo monocytes in the wound bed (LY6C^lo monocytes; during healing, no time point stated, vs blank scaffolds)","M2 Macrophages % of total cells (M2 macrophages; day 3, flow cytometry, implanted scaffold, blank 1.4±0.2%) [%]","M2 Macrophages % of Macrophages (M2 macrophages; day 3, flow cytometry, implanted scaffold, blank 34.7±6.4%) [%]","migration of M2 macrophages into a wound bed (M2 macrophages; e.g. in the hard palate, no time point)",migration of M2 macrophages into a wound bed (cutaneous wound; cutaneous wound context),cutaneous wound healing (cutaneous wound; [4]),"recruitment of anti-inflammatory (AM, Ly6C^lo) monocytes (cutaneous wound; [4])","vascularity (cutaneous wound; cutaneous wound, thin film release, 3 days)",IL-1 expression (IL-1),threshold effective concentrations relative to FTY720 (S1PRs)
CCCCCCCCc1ccc(CCC(N)(CO)CO)cc1 [FTY720],wound contracture,complete healing,"healing, including reepithelization; also recorded: improved wound healing; also recorded: greater injury healing and ONF prevention","initial burst in the first hours of incubation in vitro, followed by a delay and a second phase of release between 3 and 5 days",did not reveal any changes,increased,increased,22.5±5.6,increased,5.7%±0.6,increase,3.7±0.5,63.6±3.9,increases the migration,increases the migration,improved wound healing,increases the frequency; also recorded: selectively recruits non-classical Ly6C^lo monocytes; also recorded: significantly increases the proportion; also recorded: recruits AM monocytes,increased vascularity,decreased,–
CCCCCCCCc1ccc(CC[C@](N)(CO)COP(=O)(O)O)cc1 [FTY720-P],–,–,–,–,–,–,–,–,–,–,–,–,–,–,–,–,–,–,–,much lower
